The source made the active and inactive calls. No cut-off for these calls is given here.

The subject of data set [1] is MCF7. Description: Antiproliferative activity against human MCF7 cells assessed as cell growth inhibition measured after 48 hrs by MTT assay. It counts as functional, cell-based.
Data set [2] in a line: Cytotoxicity against African green monkey MARC145 cells assessed as cell growth inhibition measured after 48 hrs by MTT assay. In kind it is cell-based. As to conditions: chlorocebus aethiops, marc145, 48 h. On the technique in general: Tetrazolium assays rely on reduction of a dye to a coloured formazan, in cell work by metabolically active cells.
Data set [3] concerns Staphylococcus aureus. The data set can be described thus: Antibacterial activity against methicillin-resistant Staphylococcus aureus JCSC3063 assessed as bacterial growth inhibition by microbroth dilution method. It counts as functional.
Data set [4] concerns MDA-MB-231. Description: Antiproliferative activity against human MDA-MB-231 cells assessed as cell growth inhibition measured after 48 hrs by MTT assay. It counts as functional, cell-based.
Data set [5] relates to HeLa. The data set can be described thus: Antiproliferative activity against human HeLa cells assessed as cell growth inhibition measured after 48 hrs by MTT assay. It counts as functional, cell-based.
The test system of data set [6] is Staphylococcus aureus. Description: Antibacterial activity against Staphylococcus aureus CMCC26003 assessed as bacterial growth inhibition by microbroth dilution method. It counts as functional.

On to `CC1=C2C[C@@H](C(C)(C)O)CC[C@]2(C)CCC1=O`, for which the result in data set [1], in data set [3], in data set [4], in data set [5] and in data set [6] was inactive. For the same molecule, in data set [2], the Activity result is given as “Non-Toxic”.

As for `C=C1C[C@@H](O)C[C@@]2(C)CC[C@H](C(C)(C)O)C[C@H]12`, the outcome in data set [1], in data set [3], in data set [4], in data set [5] and in data set [6] was inactive. For the same molecule, the Activity entry in data set [2] is listed as “Non-Toxic”.

For `CC1=CCC[C@H]2CC3=C(CO)C(=O)OC3=C[C@]12C`, the outcome in data set [1], in data set [3], in data set [4], in data set [5] and in data set [6] was inactive. Also, the Activity result in data set [2] is “Non-Toxic”.

On to `C=C1CCC[C@@]2(C)CC[C@H](C(C)(C)O)C[C@H]12`, for which the result in data set [1], in data set [3], in data set [4], in data set [5] and in data set [6] was inactive. The Activity result in data set [2] is listed as “Non-Toxic”.

For the molecule `CC1=CC(=O)C[C@@]2(C)CC[C@H](C(C)CO)C[C@H]12` (some centres not stated), the result in data set [1], in data set [3], in data set [4], in data set [5] and in data set [6] was inactive. Moreover, the Activity entry in data set [2] is listed as “Non-Toxic”.

On to `CC1=CCCC2(C)CC[C@H](C(C)CO)C[C@H]12` (single isomer, unassigned), for which the result in data set [1], in data set [4] and in data set [5] was inactive. Moreover, the Activity entry is “Non-Toxic” in data set [2] and 6.3 µg/mL in data set [6].

Turning to `CC(=O)OCC(=O)[C@H]1CC[C@]2(C)CCC=C(C)[C@H]2C1`, the result in data set [1], in data set [3], in data set [4], in data set [5] and in data set [6] was inactive. For the same molecule, in data set [2], the Activity result is recorded as “Non-Toxic”.

Consider `CC1=CCC[C@@]2(C)C[C@H]3OC(=O)[C@@H](C)[C@@H]3C[C@H]12`, for which the result in data set [1], in data set [3], in data set [4], in data set [5] and in data set [6] was inactive. Also, the Activity result in data set [2] is “Non-Toxic”.

Regarding `CC1=CC(=O)C[C@@]2(C)CC[C@H](C(C)(C)O)C[C@H]12`, the result in data set [1], in data set [3], in data set [4], in data set [5] and in data set [6] was inactive. Also, the Activity result in data set [2] was “Non-Toxic”.

`CC(C)=CCC/C(C)=C/CC/C(C)=C/CC/C=C(\C)CC/C=C(\C)CCC=C(C)C` [SQUALENE]: the outcome in data set [1], in data set [3], in data set [4], in data set [5] and in data set [6] was inactive. The Activity entry in data set [2] is reported as “Non-Toxic”.

Consider `CC(C)[C@H](C)/C=C/[C@@H](C(=O)O)[C@H]1CCC2=C3C=C[C@H]4CC(=O)CC[C@]4(C)[C@H]3CC[C@@]21C`, for which the result in data set [1], in data set [3], in data set [4], in data set [5] and in data set [6] was inactive. The Activity result in data set [2] is on record as “Non-Toxic”.

Regarding `CC(C)[C@@H](C)/C=C/[C@@H](C)[C@H]1CCC2=C3C=CC4=CC(=O)CC[C@]4(C)[C@H]3CC[C@@]21C`, the result in data set [1], in data set [3], in data set [4], in data set [5] and in data set [6] was inactive. The Activity result in data set [2] is “Non-Toxic”.

Take `C=C1CCC(=O)[C@@]2(C)CC[C@H](C(C)(C)O)C[C@H]12`: the outcome in data set [1], in data set [3], in data set [4], in data set [5] and in data set [6] was inactive. Further, the Activity entry in data set [2] is on record as “Non-Toxic”.

Consider `C[C@H]1CCC(=O)[C@@]2(C)CC=C(C(C)(C)O)C[C@H]12`, for which the result in data set [1], in data set [3], in data set [4], in data set [5] and in data set [6] was inactive. Besides, the Activity entry in data set [2] is reported as “Non-Toxic”.

`CC[C@H](CC[C@@H](C)[C@H]1CC[C@H]2[C@@H]3CC=C4C[C@@H](O)CC[C@]4(C)[C@H]3CC[C@]12C)C(C)C` [BETA-SITOSTEROL]: the outcome in data set [1], in data set [3], in data set [4], in data set [5] and in data set [6] was inactive. Besides, in data set [2], the Activity entry is “Non-Toxic”.

As to `C[C@H]1CCC(=O)[C@@]2(C)CC[C@H](C(C)(C)O)[C@H](O)[C@H]12`, the outcome in data set [1], in data set [3], in data set [4], in data set [5] and in data set [6] was inactive. Also, in data set [2], the Activity result is recorded as “Non-Toxic”.

Take `C[C@H]1CCC(=O)[C@@]2(C)CCC(C(C)(C)O)=C[C@H]12`: the result in data set [1], in data set [3], in data set [4], in data set [5] and in data set [6] was inactive. In addition, in data set [2], the Activity result is “Non-Toxic”.

In the case of `C=C(C(C)C)[C@H](O)C[C@@H](C)[C@H]1CC[C@@]2(C)C3=C(CC[C@]12C)[C@@]1(C)CCC(=O)C(C)(C)[C@@H]1CC3`, the result in data set [1], in data set [3], in data set [4], in data set [5] and in data set [6] was inactive. Also, in data set [2], the Activity entry is given as “Non-Toxic”.

Source of the values: ChEMBL document CHEMBL4834455, “Sesquiterpenes and Steroids from an Endophytic Eutypella scoparia” (J Nat Prod, 2021).
